Assay results taken from article PMC8496750, “Identification of the organic anion transporting polypeptides responsible for the hepatic uptake of the major metabolite of epyrifenacil, S‐3100‐CA, in mice” (Pharmacology Research & Perspectives, 2021).

What was measured:
human OATP1B1 = molecular target: T1, human OATP1B1 (Homo sapiens, UniProt Q9Y6L6); assay: Inhibition of S‐3100‐CA uptake by OATP inhibitors, human OATP1B1; assay type: in vitro ADME; conditions: inhibitor at 100 μM
T1 construct: expressed in transfected cells; host or cells: 293FT cells
T1 sequence (Q9Y6L6 1-691): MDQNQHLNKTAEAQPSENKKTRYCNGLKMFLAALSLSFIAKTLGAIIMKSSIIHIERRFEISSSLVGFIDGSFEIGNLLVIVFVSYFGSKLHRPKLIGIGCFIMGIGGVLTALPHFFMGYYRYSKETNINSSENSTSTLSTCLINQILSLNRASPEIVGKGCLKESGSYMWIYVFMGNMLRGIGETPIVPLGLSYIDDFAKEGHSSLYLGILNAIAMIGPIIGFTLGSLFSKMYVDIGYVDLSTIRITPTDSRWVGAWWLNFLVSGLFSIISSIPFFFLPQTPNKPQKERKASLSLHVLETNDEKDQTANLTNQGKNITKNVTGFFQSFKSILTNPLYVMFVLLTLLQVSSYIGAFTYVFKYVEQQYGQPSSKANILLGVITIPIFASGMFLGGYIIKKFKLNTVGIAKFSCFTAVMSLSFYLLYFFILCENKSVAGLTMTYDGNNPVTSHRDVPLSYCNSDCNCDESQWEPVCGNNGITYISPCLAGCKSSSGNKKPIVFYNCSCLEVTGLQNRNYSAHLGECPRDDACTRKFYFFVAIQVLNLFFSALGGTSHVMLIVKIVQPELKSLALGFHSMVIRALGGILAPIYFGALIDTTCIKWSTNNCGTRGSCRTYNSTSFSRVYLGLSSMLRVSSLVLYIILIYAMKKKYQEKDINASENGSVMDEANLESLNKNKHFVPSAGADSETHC
Procedure: (§1) 293FT cells were purchased from Thermo Fisher Scientific, Inc.. The cells were grown in Dulbecco's modified Eagle medium (supplemented with 4.5 g/L glucose and 2 mM L‐glutamine) at 37°C, 5% CO2, and 95% humidity. The cells were passaged 3 times per week by harvesting cells using trypsin and plating at a density of 1.0 × 10^4 cells/cm^2 in a 10 cm cell culture plate for maintenance culture. The 293FT cells were detached using trypsin and re‐seeded at a density of 2.5 × 10^4 cells/cm^2 in BioCoat™ Collagen I 6‐well plates (Corning Inc.) for transfection and then treated with 1.2 μg of plasmid vector and 3.2 μl of Lipofectamine™ 2000 Transfection Reagent (Thermo Fisher Scientific, Inc.) according to the manufacturer's instructions. After a 3‐h treatment, the transfection medium was replaced with a fresh cell culture medium and incubated at 37°C with 95% humidity and 5% CO2 until ready for the assay.
(§2) Transport experiments were conducted approximately 24 h post‐transfection. […] From the lysate, 1.0 ml was transferred to a vial containing 10 ml of Emulsifier Scintillator Plus to measure the radioactivity in the LSC. The protein concentration of the cell lysate was also measured using a Pierce™ BCA Protein Assay Kit (Thermo Fisher Scientific, Inc.), which was used to normalize, according to the cell number, the radioactivity in the cell lysate extract. […]

mouse Oatp1b2 = molecular target: T2, mouse Oatp1b2 (Mus musculus, UniProt Q9JJL3); assay: Inhibition of S‐3100‐CA uptake by OATP inhibitors, mouse Oatp1b2; assay type: in vitro ADME; set-up: expressed in transfected cells; host or cells: 293FT cells; conditions: inhibitor at 100 μM
T2 sequence (Q9JJL3 1-689): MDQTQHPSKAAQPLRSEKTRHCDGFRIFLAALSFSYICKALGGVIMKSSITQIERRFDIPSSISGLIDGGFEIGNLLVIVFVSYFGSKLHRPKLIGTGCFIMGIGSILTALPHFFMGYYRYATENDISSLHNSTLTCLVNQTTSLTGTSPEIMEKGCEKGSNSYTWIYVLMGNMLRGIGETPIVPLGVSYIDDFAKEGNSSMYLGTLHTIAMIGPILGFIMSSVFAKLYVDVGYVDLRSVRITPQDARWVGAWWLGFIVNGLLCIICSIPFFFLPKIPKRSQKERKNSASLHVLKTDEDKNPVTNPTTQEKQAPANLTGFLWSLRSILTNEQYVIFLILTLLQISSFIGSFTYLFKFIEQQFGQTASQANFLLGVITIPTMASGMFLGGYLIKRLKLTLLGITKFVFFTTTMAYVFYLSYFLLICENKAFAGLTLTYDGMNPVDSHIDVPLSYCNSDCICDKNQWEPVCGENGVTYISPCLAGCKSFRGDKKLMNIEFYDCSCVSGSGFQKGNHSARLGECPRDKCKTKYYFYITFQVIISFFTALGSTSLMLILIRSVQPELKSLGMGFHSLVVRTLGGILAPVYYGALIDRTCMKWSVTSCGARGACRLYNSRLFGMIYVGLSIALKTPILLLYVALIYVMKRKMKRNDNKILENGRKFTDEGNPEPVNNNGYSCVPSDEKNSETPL
Procedure: as §1, §2

How did the “Uptake of S‐3100‐CA, % of that by vehicle‐treated cells” value (human OATP1B1) turn out when `CO[C@H]1/C=C/O[C@@]2(C)Oc3c(C)c(O)c4c(O)c(c(/C=N/N5CCN(C)CC5)c(O)c4c3C2=O)NC(=O)/C(C)=C\C=C\[C@H](C)[C@H](O)[C@@H](C)[C@@H](O)[C@@H](C)[C@H](OC(C)=O)[C@@H]1C` [RIF, Rifampicin] was run?
Its value is “less than 40%”.

And the “Uptake of S‐3100‐CA, % of that by vehicle‐treated cells” value (mouse Oatp1b2)?
The value was “less than 40%”.
